Results taken from ChEMBL document CHEMBL1914418, “Biochemical and pharmacological profiling of the pro-survival protein Bcl-xL” (Bioorg Med Chem Lett, 2011).

Legend:
Bcl-2-like protein 1 [1] = molecular target: Bcl-2-like protein 1 (Homo sapiens, UniProt Q07817, L130G); experiment: Displacement of BODIPY-Bak conjugated peptide from GST-tagged human Bcl-2-like protein 1 L130G mutant expressed in Escherichia coli BL21 cells at 10 uM after 3 hrs by fluorescence polarization competition assay
Bcl-2-like protein 1 [2] = molecular target: Bcl-2-like protein 1 (Homo sapiens, UniProt Q07817, G196A); experiment: Displacement of BODIPY-Bak conjugated peptide from GST-tagged human Bcl-2-like protein 1 G196A mutant expressed in Escherichia coli BL21 cells at 10 uM after 3 hrs by fluorescence polarization competition assay
[3] = Displacement of BODIPY-Bak conjugated peptide from GST-tagged human Bcl-2-like protein 1 delta136T mutant expressed in Escherichia coli BL21 cells at 10 uM after 3 hrs by fluorescence polarization competition assay
[4] = Displacement of BODIPY-Bak conjugated peptide from GST-tagged human Bcl-2-like protein 1 A142Gdelta136T mutant expressed in Escherichia coli BL21 cells at 10 uM after 3 hrs by fluorescence polarization competition assay
Bcl-2-like protein 1 [5] = molecular target: Bcl-2-like protein 1 (Homo sapiens, UniProt Q07817); experiment: Displacement of BODIPY-Bak conjugated peptide from GST-tagged human Wild type Bcl-2-like protein 1 expressed in Escherichia coli BL21 cells at 10 uM after 3 hrs by fluorescence polarization competition assay
Bcl-2-like protein 1 [6] = molecular target: Bcl-2-like protein 1 (Homo sapiens, UniProt Q07817, V141A); experiment: Displacement of BODIPY-Bak conjugated peptide from GST-tagged human Bcl-2-like protein 1 V141A mutant expressed in Escherichia coli BL21 cells at 10 uM after 3 hrs by fluorescence polarization competition assay
Bcl-2-like protein 1 [7] = molecular target: Bcl-2-like protein 1 (Homo sapiens, UniProt Q07817, Y195F); experiment: Displacement of BODIPY-Bak conjugated peptide from GST-tagged human Bcl-2-like protein 1 Y195F mutant expressed in Escherichia coli BL21 cells at 10 uM after 3 hrs by fluorescence polarization competition assay
Bcl-2-like protein 1 [8] = molecular target: Bcl-2-like protein 1 (Homo sapiens, UniProt Q07817, E96G); experiment: Displacement of BODIPY-Bak conjugated peptide from GST-tagged human Bcl-2-like protein 1 E96G mutant expressed in Escherichia coli BL21 cells at 10 uM after 3 hrs by fluorescence polarization competition assay
Bcl-2-like protein 1 [9] = molecular target: Bcl-2-like protein 1 (Homo sapiens, UniProt Q07817, Y101H); experiment: Displacement of BODIPY-Bak conjugated peptide from GST-tagged human Bcl-2-like protein 1 Y101H mutant expressed in Escherichia coli BL21 cells at 10 uM after 3 hrs by fluorescence polarization competition assay
Bcl-2-related protein A1 = molecular target: T1, Bcl-2-related protein A1 (Homo sapiens, UniProt Q16548); experiment: Binding affinity for GST-tagged human BCL2A1 expressed in Escherichia coli BL21 cells
T1 sequence (Q16548 whole entry): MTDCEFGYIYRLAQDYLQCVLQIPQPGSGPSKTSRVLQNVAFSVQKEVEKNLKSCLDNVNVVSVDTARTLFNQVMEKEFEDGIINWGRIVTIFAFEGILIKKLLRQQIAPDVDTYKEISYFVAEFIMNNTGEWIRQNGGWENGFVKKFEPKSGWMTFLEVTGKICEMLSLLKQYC

Bcl-2-like protein 1 [10] = molecular target: Bcl-2-like protein 1 (Homo sapiens, UniProt Q07817, E129H); experiment: Displacement of BODIPY-Bak conjugated peptide from GST-tagged human Bcl-2-like protein 1 E129H mutant expressed in Escherichia coli BL21 cells at 10 uM after 3 hrs by fluorescence polarization competition assay
[11] = molecular target: Induced myeloid leukemia cell differentiation protein Mcl-1 homolog (Mus musculus, UniProt P97287); experiment: Binding affinity for GST-tagged mouse MCL1 expressed in Escherichia coli BL21 cells
Bcl-2-like protein 1 [12] = molecular target: Bcl-2-like protein 1 (Homo sapiens, UniProt Q07817, A93V); experiment: Displacement of BODIPY-Bak conjugated peptide from GST-tagged human Bcl-2-like protein 1 A93V mutant expressed in Escherichia coli BL21 cells at 10 uM after 3 hrs by fluorescence polarization competition assay
Bcl-2-like protein 1 [13] = molecular target: Bcl-2-like protein 1 (Homo sapiens, UniProt Q07817, L130A); experiment: Displacement of BODIPY-Bak conjugated peptide from GST-tagged human Bcl-2-like protein 1 L130A mutant expressed in Escherichia coli BL21 cells at 10 uM after 3 hrs by fluorescence polarization competition assay
Bcl-2-like protein 1 [14] = molecular target: Bcl-2-like protein 1 (Homo sapiens, UniProt Q07817, A142G); experiment: Displacement of BODIPY-Bak conjugated peptide from GST-tagged human Bcl-2-like protein 1 A142G mutant expressed in Escherichia coli BL21 cells at 10 uM after 3 hrs by fluorescence polarization competition assay
Bcl-2-like protein 1 [15] = molecular target: Bcl-2-like protein 1 (Homo sapiens, UniProt Q07817, A142T); experiment: Displacement of BODIPY-Bak conjugated peptide from GST-tagged human Bcl-2-like protein 1 A142T mutant expressed in Escherichia coli BL21 cells at 10 uM after 3 hrs by fluorescence polarization competition assay
Bcl-2-like protein 1 [16] = molecular target: Bcl-2-like protein 1 (Homo sapiens, UniProt Q07817, F97V); experiment: Displacement of BODIPY-Bak conjugated peptide from GST-tagged human Bcl-2-like protein 1 F97V mutant expressed in Escherichia coli BL21 cells at 10 uM after 3 hrs by fluorescence polarization competition assay
Bcl-2-like protein 1 (Homo sapiens, UniProt Q07817, F97V), sequence (Q07817 whole entry F97V): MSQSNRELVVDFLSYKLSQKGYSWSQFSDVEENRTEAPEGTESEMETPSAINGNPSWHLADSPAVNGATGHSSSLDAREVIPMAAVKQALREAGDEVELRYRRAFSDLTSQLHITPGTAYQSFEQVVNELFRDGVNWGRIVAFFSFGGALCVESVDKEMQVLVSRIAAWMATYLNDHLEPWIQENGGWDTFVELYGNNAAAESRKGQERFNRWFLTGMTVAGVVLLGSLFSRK

Bcl-2-like protein 1 (Homo sapiens, UniProt Q07817, A142T), sequence (Q07817 whole entry A142T): as the sequence (Q07817 whole entry F97V) above, with V97F, A142T counted along it
Induced myeloid leukemia cell differentiation protein Mcl-1 homolog, sequence (P97287 whole entry): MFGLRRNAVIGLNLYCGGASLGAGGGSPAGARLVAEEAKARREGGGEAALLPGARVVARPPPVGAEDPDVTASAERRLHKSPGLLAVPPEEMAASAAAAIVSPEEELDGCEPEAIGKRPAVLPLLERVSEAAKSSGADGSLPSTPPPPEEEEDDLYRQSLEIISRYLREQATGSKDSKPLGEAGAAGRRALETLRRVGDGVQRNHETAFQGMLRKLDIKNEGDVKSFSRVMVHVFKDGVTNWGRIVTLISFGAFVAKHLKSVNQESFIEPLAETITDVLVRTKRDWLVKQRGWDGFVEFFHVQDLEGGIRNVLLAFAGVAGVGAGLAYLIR
Bcl-2-like protein 1 (Homo sapiens, UniProt Q07817, Y101H), sequence (Q07817 whole entry Y101H): as the sequence (Q07817 whole entry F97V) above, with V97F, Y101H counted along it
Bcl-2-like protein 1 (Homo sapiens, UniProt Q07817, Y195F), sequence (Q07817 whole entry Y195F): as the sequence (Q07817 whole entry F97V) above, with V97F, Y195F counted along it
Bcl-2-like protein 1 (Homo sapiens, UniProt Q07817, L130A), sequence (Q07817 whole entry L130A): as the sequence (Q07817 whole entry F97V) above, with V97F, L130A counted along it
Bcl-2-like protein 1 (Homo sapiens, UniProt Q07817, L130G), sequence (Q07817 whole entry L130G): as the sequence (Q07817 whole entry F97V) above, with V97F, L130G counted along it
Bcl-2-like protein 1 (Homo sapiens, UniProt Q07817, A142G), sequence (Q07817 whole entry A142G): as the sequence (Q07817 whole entry F97V) above, with V97F, A142G counted along it
Bcl-2-like protein 1 (Homo sapiens, UniProt Q07817, A93V), sequence (Q07817 whole entry A93V): as the sequence (Q07817 whole entry F97V) above, with A93V, V97F counted along it
Bcl-2-like protein 1 (Homo sapiens, UniProt Q07817, E96G), sequence (Q07817 whole entry E96G): as the sequence (Q07817 whole entry F97V) above, with E96G, V97F counted along it
Bcl-2-like protein 1 (Homo sapiens, UniProt Q07817, G196A), sequence (Q07817 whole entry G196A): as the sequence (Q07817 whole entry F97V) above, with V97F, G196A counted along it
Bcl-2-like protein 1 (Homo sapiens, UniProt Q07817, V141A), sequence (Q07817 whole entry V141A): as the sequence (Q07817 whole entry F97V) above, with V97F, V141A counted along it
Bcl-2-like protein 1 (Homo sapiens, UniProt Q07817, E129H), sequence (Q07817 whole entry E129H): as the sequence (Q07817 whole entry F97V) above, with V97F, E129H counted along it
Bcl-2-like protein 1 (Homo sapiens, UniProt Q07817), sequence (Q07817 whole entry): as the sequence (Q07817 whole entry F97V) above, with V97F counted along it

Ki (Bcl-2-like protein 1 [1]): 86 nM
Ki (Bcl-2-like protein 1 [2]): 41 nM
Ki (Bcl-2-like protein 1 [5]): 6.3 nM
Ki (Bcl-2-like protein 1 [6]): 390 nM
Ki (Bcl-2-like protein 1 [7]): 51 nM
Ki (Bcl-2-like protein 1 [8]): 24 nM
Ki (Bcl-2-like protein 1 [9]): 450 nM
Kd (Bcl-2-related protein A1): > 1000 nM
Ki (Bcl-2-like protein 1 [10]): 34 nM
Kd [11]: > 1000 nM
Ki (Bcl-2-like protein 1 [12]): < 1 nM
Ki (Bcl-2-like protein 1 [13]): 47 nM
Ki (Bcl-2-like protein 1 [14]): 290 nM
Ki (Bcl-2-like protein 1 [15]): 720 nM
Ki (Bcl-2-like protein 1 [16]): 82 nM
Structure (SMILES): CN(C)CC[C@H](CSc1ccccc1)Nc1ccc(S(=O)(=O)NC(=O)c2ccc(N3CCC(C)(C)CC3)cc2)cc1[N+](=O)[O-]
Ki [3]: 34 nM
Ki [4]: 45 nM
